The source of these data is ChEMBL document CHEMBL4118154, “Discovery of evocalcet, a next-generation calcium-sensing receptor agonist for the treatment of hyperparathyroidism” (Bioorg Med Chem Lett, 2018).

The target in data set [1] is T1, Extracellular calcium-sensing receptor (Rattus norvegicus, UniProt P48442).
T1 sequence (P48442 whole entry): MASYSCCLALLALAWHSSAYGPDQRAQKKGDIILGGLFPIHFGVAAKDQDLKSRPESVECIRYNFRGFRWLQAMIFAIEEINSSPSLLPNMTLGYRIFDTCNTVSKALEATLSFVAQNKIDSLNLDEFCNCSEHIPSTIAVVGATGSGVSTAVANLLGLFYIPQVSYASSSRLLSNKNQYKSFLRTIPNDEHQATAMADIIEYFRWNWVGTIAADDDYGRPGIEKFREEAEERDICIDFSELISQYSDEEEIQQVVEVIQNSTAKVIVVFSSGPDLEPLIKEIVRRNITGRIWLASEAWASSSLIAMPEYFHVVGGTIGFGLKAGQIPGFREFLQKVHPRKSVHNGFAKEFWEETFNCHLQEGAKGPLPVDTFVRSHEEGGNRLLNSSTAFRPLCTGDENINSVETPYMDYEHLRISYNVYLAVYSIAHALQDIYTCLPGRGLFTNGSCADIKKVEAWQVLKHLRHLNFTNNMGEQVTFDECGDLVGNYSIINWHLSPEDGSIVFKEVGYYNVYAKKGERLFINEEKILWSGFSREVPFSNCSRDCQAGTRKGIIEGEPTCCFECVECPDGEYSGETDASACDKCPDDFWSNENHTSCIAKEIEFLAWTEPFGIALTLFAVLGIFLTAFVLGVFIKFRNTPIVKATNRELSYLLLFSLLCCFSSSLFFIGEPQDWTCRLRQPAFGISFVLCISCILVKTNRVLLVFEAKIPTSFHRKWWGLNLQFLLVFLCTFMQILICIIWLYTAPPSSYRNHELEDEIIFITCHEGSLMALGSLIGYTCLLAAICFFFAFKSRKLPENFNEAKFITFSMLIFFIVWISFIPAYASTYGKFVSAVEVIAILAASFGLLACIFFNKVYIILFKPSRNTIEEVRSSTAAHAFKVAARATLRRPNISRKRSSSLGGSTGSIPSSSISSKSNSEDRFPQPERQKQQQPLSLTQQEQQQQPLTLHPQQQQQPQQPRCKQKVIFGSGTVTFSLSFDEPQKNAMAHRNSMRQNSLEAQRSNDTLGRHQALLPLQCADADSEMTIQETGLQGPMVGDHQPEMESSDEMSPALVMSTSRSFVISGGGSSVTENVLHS
As to the kind of experiment: Agonist activity at CaSR in rat parathyroid cells assessed as inhibition of PTH (1 to 84 residues) production in presence of Cacl2 by ELISA. Format: functional, cell-based.

The target in a further data set is CYP2D6 (Homo sapiens, UniProt P10635). As to the kind of experiment: Inhibition of CYP2D6 (unknown origin). It counts as ADME.
CYP2D6, sequence (P10635 whole entry): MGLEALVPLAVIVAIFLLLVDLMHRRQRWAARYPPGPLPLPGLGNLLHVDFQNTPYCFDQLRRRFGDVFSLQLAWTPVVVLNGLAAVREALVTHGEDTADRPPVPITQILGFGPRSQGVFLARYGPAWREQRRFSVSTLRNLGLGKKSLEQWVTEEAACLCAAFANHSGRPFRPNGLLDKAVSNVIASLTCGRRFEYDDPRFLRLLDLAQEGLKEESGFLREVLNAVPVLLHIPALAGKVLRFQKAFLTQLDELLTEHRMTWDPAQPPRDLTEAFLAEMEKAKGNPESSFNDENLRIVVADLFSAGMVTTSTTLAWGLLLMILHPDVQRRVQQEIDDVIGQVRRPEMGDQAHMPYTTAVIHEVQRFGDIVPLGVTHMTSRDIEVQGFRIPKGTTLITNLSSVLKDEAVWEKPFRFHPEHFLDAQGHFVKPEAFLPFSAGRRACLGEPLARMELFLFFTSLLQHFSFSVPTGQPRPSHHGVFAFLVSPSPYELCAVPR
Data set [2] in a line: AUC (0 to infinity) in rat at 1 mg/kg, po. Format: ADME, organism-based. As to conditions: in vivo. Also noted: dose 1 mg/kg, route oral, time infinity.
A short description of data set [3]: Total clearance in rat at 0.3 mg/kg, iv. It counts as ADME, organism-based. As to conditions: in vivo.
Data set [4] in a line: Half life in monkey at 1 mg/kg, po. Format: ADME, organism-based, Macaca mulatta. As to conditions: rhesus monkey, in vivo.
Data set [5] is described as follows: Oral bioavailability in monkey at 1 mg/kg. It counts as ADME, organism-based, Macaca mulatta. The settings on record: rhesus monkey, in vivo.
A short description of data set [6]: AUC (0 to infinity) in monkey at 0.3 mg/kg, iv. The settings on record: rhesus monkey, in vivo. It counts as ADME, organism-based, Macaca mulatta. Also noted: dose 0.3 mg/kg, time infinity, route intravenous.
Data set [7] is described as follows: Half life in monkey at 0.3 mg/kg, iv. The settings on record: rhesus monkey, in vivo. It counts as ADME, organism-based, Macaca mulatta.
Data set [8] is described as follows: Total clearance in monkey at 0.3 mg/kg, iv. Format: ADME, organism-based, Macaca mulatta. As to conditions: rhesus monkey, in vivo.
The next data set addresses T2, CYP2A6 (Homo sapiens, UniProt P11509).
T2 sequence (P11509 whole entry): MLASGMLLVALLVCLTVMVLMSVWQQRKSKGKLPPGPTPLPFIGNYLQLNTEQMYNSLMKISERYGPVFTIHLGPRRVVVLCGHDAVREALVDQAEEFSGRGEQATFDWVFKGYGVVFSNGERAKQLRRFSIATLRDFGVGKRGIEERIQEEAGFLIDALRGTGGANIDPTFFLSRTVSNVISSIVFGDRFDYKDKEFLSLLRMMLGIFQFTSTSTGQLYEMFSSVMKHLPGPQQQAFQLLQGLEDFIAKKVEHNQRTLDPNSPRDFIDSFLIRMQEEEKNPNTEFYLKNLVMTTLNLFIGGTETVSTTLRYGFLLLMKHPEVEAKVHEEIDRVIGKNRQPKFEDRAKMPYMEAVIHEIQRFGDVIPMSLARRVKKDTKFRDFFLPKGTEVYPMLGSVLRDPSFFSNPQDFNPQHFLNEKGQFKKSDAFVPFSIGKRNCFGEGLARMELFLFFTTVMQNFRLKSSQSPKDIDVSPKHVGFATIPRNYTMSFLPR
Description: Inhibition of CYP2A6 (unknown origin). Format: ADME.

The target in a further data set is T3, CYP2C8 (Homo sapiens, UniProt P10632).
T3 sequence (P10632 whole entry): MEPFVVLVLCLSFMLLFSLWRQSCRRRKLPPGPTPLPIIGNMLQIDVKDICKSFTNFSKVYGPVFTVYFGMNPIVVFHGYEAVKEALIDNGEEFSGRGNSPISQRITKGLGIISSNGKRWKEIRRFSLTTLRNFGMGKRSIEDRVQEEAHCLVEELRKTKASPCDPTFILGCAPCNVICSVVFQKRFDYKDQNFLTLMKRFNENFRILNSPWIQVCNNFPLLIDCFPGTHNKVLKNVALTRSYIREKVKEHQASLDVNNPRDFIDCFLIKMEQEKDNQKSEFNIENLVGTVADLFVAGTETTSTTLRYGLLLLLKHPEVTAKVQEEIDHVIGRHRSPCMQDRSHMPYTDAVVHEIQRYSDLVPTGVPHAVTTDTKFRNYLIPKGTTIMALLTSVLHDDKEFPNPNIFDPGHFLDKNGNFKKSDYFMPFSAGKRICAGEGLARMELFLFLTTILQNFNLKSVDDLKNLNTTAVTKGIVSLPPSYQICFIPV
As to the kind of experiment: Inhibition of CYP2C8 (unknown origin). It counts as ADME.

The target of the next data set is CYP2C9 (Homo sapiens, UniProt P11712). As to the kind of experiment: Inhibition of CYP2C9 (unknown origin). It counts as ADME.
CYP2C9, sequence (P11712 whole entry): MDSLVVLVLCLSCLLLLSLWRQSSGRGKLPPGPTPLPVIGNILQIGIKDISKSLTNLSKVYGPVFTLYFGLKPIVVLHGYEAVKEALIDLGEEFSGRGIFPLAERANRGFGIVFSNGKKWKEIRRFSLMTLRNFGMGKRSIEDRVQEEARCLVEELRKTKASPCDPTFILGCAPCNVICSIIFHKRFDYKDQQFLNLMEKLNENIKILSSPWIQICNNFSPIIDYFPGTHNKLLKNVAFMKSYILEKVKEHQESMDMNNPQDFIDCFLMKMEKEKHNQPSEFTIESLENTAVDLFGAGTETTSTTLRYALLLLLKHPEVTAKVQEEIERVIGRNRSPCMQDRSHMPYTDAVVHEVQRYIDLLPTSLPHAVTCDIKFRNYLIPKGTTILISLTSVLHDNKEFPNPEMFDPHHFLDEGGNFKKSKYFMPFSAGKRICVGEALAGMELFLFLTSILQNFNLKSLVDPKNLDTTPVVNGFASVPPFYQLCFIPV
The next data set has as its target CYP2C19 (Homo sapiens, UniProt P33261). Description: Inhibition of CYP2C19 (unknown origin). It counts as ADME.

CYP2C19, sequence (P33261 whole entry): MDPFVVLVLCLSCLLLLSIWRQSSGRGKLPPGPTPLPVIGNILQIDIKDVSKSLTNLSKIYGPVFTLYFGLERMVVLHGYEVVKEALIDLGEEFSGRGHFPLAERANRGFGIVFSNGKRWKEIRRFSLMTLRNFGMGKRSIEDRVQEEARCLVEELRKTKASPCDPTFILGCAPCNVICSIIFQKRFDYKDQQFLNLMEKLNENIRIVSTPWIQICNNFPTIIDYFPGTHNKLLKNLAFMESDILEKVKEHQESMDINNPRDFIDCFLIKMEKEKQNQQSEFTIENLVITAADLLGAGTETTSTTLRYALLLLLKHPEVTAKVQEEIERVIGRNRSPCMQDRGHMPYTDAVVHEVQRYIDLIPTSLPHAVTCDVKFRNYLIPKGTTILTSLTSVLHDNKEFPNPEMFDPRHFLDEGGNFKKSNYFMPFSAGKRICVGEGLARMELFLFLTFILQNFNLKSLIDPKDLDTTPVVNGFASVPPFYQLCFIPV

One may read the IC50 as the concentration that inhibits the measured activity by half. By AUC(0-inf) is commonly meant the area under the concentration-time curve extrapolated to infinity. Usually clearance stands for the rate of elimination divided by the concentration. By half-life is commonly meant the time needed for the level to fall by half in the phase considered. As usually defined, the bioavailability is dose-corrected exposure relative to a reference, in per cent. Regarding `C[C@@H](N[C@H]1CCN(c2ccc(CC(=O)O)cc2)C1)c1cccc2ccccc12.Cl.Cl`, the IC50 in data set [1] was 0.0308 µM; against CYP2D6, over 50 µM; against CYP2A6, over 50 µM; at CYP2C8 it was over 50 µM; against CYP2C9 it was over 50 µM; against CYP2C19, over 50 µM. Moreover, the AUC(0-inf) came to 8440 ng·h/mL in data set [2] and 987 ng·h/mL in data set [6]. The clearance in data set [3] was 1.67 mL/min/kg; in data set [8], 5.37 mL/min/kg. The results for the half-life in [4] and in data set [7] were 8.94 h and 10.2 h, respectively. The same compound had a bioavailability in data set [5] of 55.8%.
